Reference: US20140243375A1, “ISOXAZOLINE DERIVATIVES AS INSECTICIDAL COMPOUNDS” (Syngenta Participations AG, priority 2011, published 2014)

What was measured:
Assay type in all cases: in vivo
Spodoptera littoralis = Spodoptera littoralis (Egyptian cotton leafworm) cotton leaf disc spray test; settings: foliar, 72 h, application rate 200 ppm, sprayed cotton leaf discs, mortality, feeding behavior, growth regulation 3 days after treatment
Protocol: This Example illustrates the pesticidal/insecticidal properties of compounds of formula (I). Tests were performed as follows: Spodoptera littoralis (Egyptian Cotton Leafworm): Cotton leaf discs were placed on agar in a 24-well microtiter plate and sprayed with test solutions at an application rate of 200 ppm. After drying, the leaf discs were infested with […]. The samples were checked for mortality, feeding behavior, and growth regulation 3 days after treatment (DAT).

Diabrotica balteata = Diabrotica balteata (corn root worm) L2 larvae test on artificial diet; settings: 120 h, application rate 200 ppm (concentration in well 18 ppm), larval mortality and growth regulation after 5 days
Protocol: This Example illustrates the pesticidal/insecticidal properties of compounds of formula (I). Tests were performed as follows: Diabrotica balteata (Corn Root Worm): A 24-well microtiter plate (MTP) with artificial diet was treated with test solutions at an application rate of 200 ppm (concentration in well 18 ppm) by pipetting. After drying, the MTP's were infested with L2 larvae (6-10 per well). After an incubation period of 5 days, samples were checked for larval mortality and growth regulation.

Heliothis virescens = Heliothis virescens (tobacco budworm) egg test on artificial diet; settings: 96 h, application rate 200 ppm (concentration in well 18 ppm), eggs on artificial diet, egg mortality, larval mortality, growth regulation after 4 days
Protocol: This Example illustrates the pesticidal/insecticidal properties of compounds of formula (I). Tests were performed as follows: Heliothis virescens (Tobacco Budworm): Eggs (0-24 h old) were placed in 24-well microtiter plate on artificial diet and treated with test solutions at an application rate of 200 ppm (concentration in well 18 ppm) by pipetting. After an incubation period of 4 days, samples were checked for egg mortality, larval mortality, and growth regulation.

Tetranychus urticae = Tetranychus urticae (two-spotted spider mite) bean leaf disc spray test; settings: foliar, 192 h, application rate 200 ppm, sprayed bean leaf discs, mixed ages, egg, larval and adult mortality 8 days later
Protocol: This Example illustrates the pesticidal/insecticidal properties of compounds of formula (I). Tests were performed as follows: Tetranychus urticae (Two-Spotted Spider Mite): Bean leaf discs on agar in 24-well microtiter plates were sprayed with test solutions at an application rate of 200 ppm. After drying, the leaf discs are infested with mite populations of mixed ages. 8 days later, discs are checked for egg mortality, larval mortality, and adult mortality.

Thrips tabaci = Thrips tabaci (onion thrips) sunflower leaf disc spray test; settings: foliar, 168 h, application rate 200 ppm, sprayed sunflower leaf discs, mixed ages, mortality after 7 days
Protocol: This Example illustrates the pesticidal/insecticidal properties of compounds of formula (I). Tests were performed as follows: Thrips Tabaci (Onion Thrips): Sunflower leaf discs were placed on agar in a 24-well microtiter plate and sprayed with test solutions at an application rate of 200 ppm. After drying, the leaf discs were infested with a thrips population of mixed ages. After an incubation period of 7 days, samples were checked for mortality.

Plutella xylostella = Plutella xylostella (diamond back moth) L2 larvae test on artificial diet; settings: 144 h, application rate 200 ppm (concentration in well 18 ppm), larval mortality and growth regulation after 6 days
Protocol: This Example illustrates the pesticidal/insecticidal properties of compounds of formula (I). Tests were performed as follows: Plutella xylostella (Diamond Back Moth): 24-well microtiter plate (MTP) with artificial diet was treated with test solutions at an application rate of 200 ppm (concentration in well 18 ppm) by pipetting. After drying, the MTP's were infested with L2 larvae (7-12 per well). After an incubation period of 6 days, samples were checked for larval mortality and growth regulation.

Measured: pest or weed control at 200 ppm

Cc1cc(C2=NOC(c3cc(Cl)cc(Cl)c3)(C(F)(F)F)C2)ccc1C(=O)NC1CON(C)C1=O (stereo not drawn) [Compound A01]
≥ 80%: all assays above

CCN1OCC(NC(=O)c2ccc(C3=NOC(c4cc(Cl)c(Cl)c(Cl)c4)(C(F)(F)F)C3)cc2C)C1=O (stereo not drawn) [Compound A02]
≥ 80%: all assays above

CCN1OCC(NC(=O)c2ccc(C3=NOC(c4cc(Cl)c(F)c(Cl)c4)(C(F)(F)F)C3)cc2C)C1=O (stereo not drawn) [Compound A04]
≥ 80%: all assays above

CCN1OCC(NC(=O)c2ccc(C3=NOC(c4cc(Cl)cc(Cl)c4)(C(F)(F)F)C3)cc2C)C1=O (stereo not drawn) [Compound A07]
≥ 80%: all assays above

CCN1OCC(NC(=O)c2ccc(C3=NOC(c4cc(Cl)cc(Br)c4)(C(F)(F)F)C3)cc2C)C1=O (stereo not drawn) [Compound A10]
≥ 80%: all assays above

CCN1OCC(NC(=O)c2ccc(C3=NOC(c4cc(Cl)cc(C(F)(F)F)c4)(C(F)(F)F)C3)cc2C)C1=O (stereo not drawn) [Compound A12]
≥ 80%: all assays above

Cc1cc(C2=NOC(c3cc(Cl)cc(Cl)c3)(C(F)(F)F)C2)ccc1C(=O)NC1CON(CC(F)F)C1=O (stereo not drawn) [Compound A15]
≥ 80%: all assays above

Cc1cc(C2=NOC(c3cc(Cl)c(Cl)c(Cl)c3)(C(F)(F)F)C2)ccc1C(=O)NC1CON(CC(F)(F)F)C1=O (stereo not drawn) [Compound A16]
≥ 80%: all assays above

Cc1cc(C2=NOC(c3cc(Cl)c(F)c(Cl)c3)(C(F)(F)F)C2)ccc1C(=O)NC1CON(CC(F)(F)F)C1=O (stereo not drawn) [Compound A20]
≥ 80%: all assays above

Cc1cc(C2=NOC(c3cc(Cl)cc(Cl)c3)(C(F)(F)F)C2)ccc1C(=O)NC1CON(CC(F)(F)F)C1=O (stereo not drawn) [Compound A22]
≥ 80%: all assays above

Cc1cc(C2=NOC(c3cc(Cl)cc(Br)c3)(C(F)(F)F)C2)ccc1C(=O)NC1CON(CC(F)(F)F)C1=O (stereo not drawn) [Compound A25]
≥ 80%: all assays above
